# From patent publication US20220143128A1, “METHODS FOR TREATING TRAUMATIC BRAIN INJURY” (BCell Solutions, Inc., priority 2018, published 2022)
# “Also recorded” adds a separate entry of the source.
# B1: Cystatin S: inhibitor of Cathepsin S, which cleaves CD74 in B cells, dendritic cells, and macrophages (protein, UniProt P01036 21-141, looked up)
# Cystatin-S: SSSKEENRIIPGGIYDADLNDEWVQRALHFAISEYNKATEDEYYRRPLQVLRAREQTFGGVNYFFDVEVGRTICTKSQPNLDTCAFHEQPELQKKQLCSFEIYEVPWEDRMSLVNSRCQEA
# Columns and labels:
# [1] = system: cell surface CLIP on immune cells in the spleen; test: Dose response of CD74 cleavage inhibitors on cell surface CLIP in the spleen after FPI; assay type: in vivo; conditions: for cell surface CLIP on immune cells in the spleen / optimal dose to reduce CLIP after FPI: administered 30 min after FPI, spleen at 1 day post-FPI
# Method: FIGS. 5A-5C is a set of bar graphs showing a dose response curve of inhibitors of various specific mechanisms of cleavage of full-length CD74 into CLIP 24 hours after FPI.
# In addition to inhibiting MIF-binding to CD74, we have reduced the level of CLIP by inhibiting the distinct mechanisms by which CD74 is cleaved. Drugs that inhibit CD74 cleavage have been administered 30 min after FPI and the levels of CLIPs in the spleen have been assessed at 1 day post-FPI. […] We also found, using the proteasomal inhibitor, Bortezomib (PS341), that this compound was most efficacious at reducing cell-surface CLIP on B cells at 0.1 mg·kg, i.p. (FIG. 5B). Finally, Cystatin S is an inhibitor of Cathepsin S, which cleaves CD74 in B cells, dendritic cells, and macrophages^11,12. […] The optimal dosage is 50 mg/kg (FIG. 5C). At concentrations greater than 50 mg/kg, the compound appeared to be toxic under the tested conditions.
# [2] = system: FJC-labeled cells in the perilesion area; test: Fluorojade C (FJC) histology of neurodegeneration in peri-injury cortex after FPI; assay type: in vivo, mouse; conditions: 10 mg/kg at 30 mins after FPI; 3 days after FPI
# Method: FIG. 3A is a photomicrograph depicting FJC-staining in the peri-lesion area of a mouse treated with DMSO 30 mins after FPI. 3B is a comparative photomicrograph from a mouse treated with ISO1 at 30 mins after FPI. […] N=6 per group.
# We assessed the effects of 10 mg/kg of ISO1 administered at 30 mins after FPI on neurodegeneration (FIG. 3), and the astrocytic response (FIG. 4), in peri-injury cortex, at 3 days after FPI.
# [3] = system: GFAP+ astrocytes; test: GFAP-labeling of the astrocytic response in perilesion cortex after FPI; assay type: in vivo, mouse; conditions: treatment at 30 mins after FPI (ISO1 10 mg/kg), 3 days after FPI
# [4] = system: CLIP+ B cells in the brain; test: Brain flow cytometry for CLIP+ B cells after fluid percussion injury (FPI); assay type: in vivo, mouse
# Method: The contributions of full-length cell-surface CD74 and its proteolytic products (CLIPs) in the pathogenic mechanisms that follow TBI were assessed. First, we determined if full-length CD74 on B cells was altered after fluid percussion injury (FPI) in an FPI model of TBI. A mouse model of TBI was produced and splenoctyes from those mice were isolated following FPI. The model, referred to as the “fluid percussion injury model”, is referenced in Tobin et al Acta Neuropathologica Communications 2014. Splenocytes were stained with anti-CD19 for B cells and counterstained with anti-CD74.
# In order to address the innate immune components of CD74, a series of experiments in which MIF-binding to CD74 was antagonized at 30 min after FPI were performed. MIF mRNA levels are elevated after TBI. This occurs as a part of the innate immune response, via MIF-binding to, and signaling through cell surface CD74^35. We utilized ISO1, a small molecule that inhibits MIF-binding to CD74, to determine whether inhibition of MIF-binding would alter FPI-induced, CLIP-related cellular (FIG. 2) and neuroanatomical outcomes (FIGS. 3 and 4). ISO1 was administered at 30 mins after FPI and performed brain flow cytometry to assess what percent of leukocytes are CLIP+ B cells. It should be noted that less than 0.001 B cells enter the brain in naïve mice so they are not included in the graph.
# [5] = system: CLIPs in MHCII; conditions: treatment with Cystatin S; literature reference; cited from earlier work
molecule,measurement,setting,value
C[C@H]1CCC/C=C/[C@@H]2C[C@H](O)C[C@H]2[C@H](O)/C=C/C(=O)O1 [Brefeldin A],cell surface CLIP on immune cells in the spleen,[1],reduces cell surface CLIP on immune cells in the spleen
same,optimal dose to reduce CLIP after FPI,[1],5 mg/kg
CC(C)C[C@H](NC(=O)[C@H](Cc1ccccc1)NC(=O)c1cnccn1)B(O)O [Bortezomib],dose most efficacious at reducing cell-surface CLIP on B cells,"[1]; i.p., 30 min after FPI, 24 hours after FPI",0.1 mg·kg
"COC(=O)CC1CC(c2ccc(O)cc2)=NO1 (centres unmarked) [ISO1, 4,5-Dihydro-3-(4-hydroxyphenyl)-5-isoxazoleacetic acid methyl ester]",neurodegeneration (total number of FJC-labeled cells in the perilesion area),[2],no effect on neurodegeneration; also recorded: no effect on the total number of FJC-labeled cells
same,astrocytic response (GFAP-labeling) in perilesion cortex,[3],significantly reduced the peak astrocyte response; also recorded: significantly reduced GFAP-labeling
same,percent of CLIP+ B cells in the brain,"[4]; administered at 30 min after FPI, brain at 24 hrs after FPI",significantly reduced the percentage of CLIP+ B cells in the brain; also recorded: reduced the percent of B cells that express CLIP in the brain
same,dose providing the most significantly robust decrease in the percent of CLIP+ B cells entering the brain,[4]; at 30 mins after FPI,10 mg/kg
B1,concentrations at which the compound appeared to be toxic,"[1]; FPI mice, under the tested conditions",greater than 50 mg/kg
same,cell surface CLIP on immune cells in the spleen,[1],reduction in immune cell-surface CLIP; also recorded: reduced immune cell-surface CLIP
same,optimal dose to reduce CLIP after FPI,[1],50 mg/kg
same,level of CLIPs in MHCII,[5],reduces the level of CLIPs in MHCII
